The MIC50 is an inhibitory concentration at the 50% level, which refers to growth in some studies and to a panel of isolates in others. Low values mean higher susceptibility, high ones lower susceptibility. By MIC90 is commonly meant an inhibitory concentration at the 90% level, which refers to growth in some studies and to a panel of isolates in others. A higher MIC90 goes with weaker potency.

In brackets after ≈: the same amount, converted by molar mass.

The experiment deals with Mycobacterium tuberculosis. Description: Antitubercular activity against Isoniazid,rifampicin,gatifloxacin-resistant Mycobacterium tuberculosis after 60 days. In kind it is functional.
In turn, `O=C(Cn1c2ccccc2c2nc3ccccc3nc21)N1N=C(c2cc3cc(O)ccc3o2)CC1c1ccccc1O` (stereo not given) yielded an MIC50 of 10.3 µg/mL (≈ 18.7 µM) and an MIC90 of 12.6 µg/mL (≈ 22.7 µM).
The corresponding values for `COc1ccccc1C1CC(c2cc3cc(O)ccc3o2)=NN1C(=O)Cn1c2ccccc2c2nc3ccccc3nc21` (stereo not given) are 10.7 µg/mL (≈ 18.8 µM) and 13.6 µg/mL (≈ 24 µM).
The corresponding values for `CN(C)c1ccc(C2CC(c3cc4cc(O)ccc4o3)=NN2C(=O)Cn2c3ccccc3c3nc4ccccc4nc32)cc1` (stereo not given) are 5 µg/mL (≈ 8.61 µM) and 8.98 µg/mL (≈ 15.5 µM).
The corresponding values for `CC(=O)c1ccccc1C1CC(c2cc3cc(O)ccc3o2)=NN1C(=O)Cn1c2ccccc2c2nc3ccccc3nc21` (stereo not given) are 9.56 µg/mL (≈ 16.5 µM) and 7.45 µg/mL (≈ 12.9 µM).
Take `O=C(Cn1c2ccccc2c2nc3ccccc3nc21)N1N=C(c2cc3cc(O)ccc3o2)CC1c1cccc([N+](=O)[O-])c1` (stereo not given): the MIC50 came out at 1.2 µg/mL (≈ 2.06 µM) and the MIC90 was 2 µg/mL (≈ 3.43 µM).
For `COc1ccc(C2CC(c3cc4cc(O)ccc4o3)=NN2C(=O)Cn2c3ccccc3c3nc4ccccc4nc32)c(O)c1` (stereo not given) the same measures were 7.8 µg/mL (≈ 13.4 µM) and 13.1 µg/mL (≈ 22.4 µM).
The corresponding values for `O=C(Cn1c2ccccc2c2nc3ccccc3nc21)N1N=C(c2cc3cc(O)ccc3o2)CC1c1ccc(O)cc1` (stereo not given) are 9.86 µg/mL (≈ 17.8 µM) and 11.2 µg/mL (≈ 20.3 µM).
The corresponding values for `O=C(Cn1c2ccccc2c2nc3ccccc3nc21)N1N=C(c2cc3cc(O)ccc3o2)CC1c1ccc(Cl)cc1` (stereo not given) are 5.23 µg/mL (≈ 9.14 µM) and 8.66 µg/mL (≈ 15.1 µM).
Consider `O=C(Cn1c2ccccc2c2nc3ccccc3nc21)N1N=C(c2cc3cc(O)ccc3o2)CC1c1ccccc1Cl` (stereo not given), for which the MIC50 was found to be 4.68 µg/mL (≈ 8.18 µM) and the MIC90 is 8.61 µg/mL (≈ 15.1 µM).
The corresponding values for `O=C(Cn1c2ccccc2c2nc3ccccc3nc21)N1N=C(c2cc3cc(O)ccc3o2)CC1c1ccccc1[N+](=O)[O-]` (stereo not given) are 3.24 µg/mL (≈ 5.56 µM) and 7.2 µg/mL (≈ 12.4 µM).
The corresponding values for `COc1ccc(C2CC(c3cc4cc(O)ccc4o3)=NN2C(=O)Cn2c3ccccc3c3nc4ccccc4nc32)cc1` (stereo not given) are 11.5 µg/mL (≈ 20.3 µM) and 15.4 µg/mL (≈ 27.1 µM).
The corresponding values for `O=C(Cn1c2ccccc2c2nc3ccccc3nc21)N1N=C(c2cc3cc(O)ccc3o2)CC1c1ccco1` (stereo not given) are 6.4 µg/mL (≈ 12.1 µM) and 9.78 µg/mL (≈ 18.5 µM).
For `O=C(Cn1c2ccccc2c2nc3ccccc3nc21)N1N=C(c2cc3cc(O)ccc3o2)CC1/C=C/c1ccccc1` (stereo not given), the MIC50 came out at 5.6 µg/mL (≈ 9.94 µM) and the MIC90 was 11.3 µg/mL (≈ 20.1 µM).
The compound `COc1c(N2CCNC(C)C2)c(F)cc2c(=O)c(C(=O)O)cn(C3CC3)c12` (stereo not given) [GATIFLOXACIN] came in with an MIC50 of 14.7 µg/mL (≈ 39.2 µM) and an MIC90 of 28.5 µg/mL (≈ 75.8 µM).
The compound `CO[C@H]1/C=C/O[C@@]2(C)Oc3c(C)c(O)c4c(O)c(c(/C=N/N5CCN(C)CC5)c(O)c4c3C2=O)NC(=O)/C(C)=C\C=C\[C@H](C)[C@H](O)[C@@H](C)[C@@H](O)[C@@H](C)[C@H](OC(C)=O)[C@@H]1C` [RIFAMPIN] gave an MIC50 of 4.21 µg/mL (≈ 5.12 µM) and an MIC90 of 7.37 µg/mL (≈ 8.96 µM).
